Assay [1] deals with ApoE-KO mice infused with angiotensin II. Put plainly: Angiotensin II-induced abdominal aortic aneurysm in apoE-KO mice. The assay is classed as in vivo. The text has this:
Infusion of apoE-KO mice (Jackson Laboratories, Bar Harbor, Me.) with angiotensin II has been reported to lead to the formation of large abdominal aortic aneurysms (Daugherty et al. (2000) J. Clin. Invest. 105:1605-1612). This system can be used as a model system in which to study the effects of the Rho-kinase inhibitors of the present invention on these conditions, using the methods described in Wang et al. (2001) American J. Path. 159:1455-1464. (See Example 1).
(§1) For some parameters measured, comparative data was also collected for C57 Black mice, the mouse strain from which the ApoE-KO mouse is derived.

The test system is the same in assay [2]. Put plainly: Angiotensin II-induced cardiac hypertrophy in apoE-KO mice. The assay is classed as in vivo.
In assay [3] the test system is supra-renal aortic wall in apoE-KO mice. Put plainly: Apoptosis in aortic tissue (TUNEL, cell death detection ELISA, H & E staining). The assay is classed as in vivo. The conditions noted are these: for apoptosis: TUNEL staining, supra-renal aorta, FIG. 2. The procedure: FIG. 3. To further quantify apoptosis in the aortic tissue, cell death detection ELISA assay was performed.
Background: ELISA stands for enzyme-linked immunosorbent assay.

For assay [4], the system named is ApoE-KO mice infused with angiotensin II. Put plainly: Blood pressure, heart rate, serum cholesterol, aortic arch lesion area and aortic stiffness in Ang II-infused apoE-KO mice. In kind it is in vivo.
Description: as §1

In another assay the test system is Rho-kinase. The following applies: cited from earlier work.

SMILES strings stand for the structures. Marks after values point to notes of the source that are not given here.

Turning to `O=S(=O)(c1cccc2cnccc12)N1CCCNCC1` [Fasudil, Hexahydro-1-(5-isoquinolylsulfonyl)-1H-1,4-diazepine], the “Diameter (mm)” value in assay [1] (Ang II for 30 days, fasudil in drinking water, postmortem direct measurement) amounted to 1.5 ± 0.1 mm. Besides, the “Incidence (%)” value in assay [1] (abdominal aortic aneurysm, Ang II 1.44 mg/kg per day for 30 days, fasudil 1 mg/ml in drinking water) is recorded as 41# %. Further, in assay [1] (oral, >100 mg/kg daily in drinking water, n=20, p<0.05 vs. controls), the “incidence of abdominal aortic aneurysm formation” value is reported as 35%. Further, in assay [1] (versus Ang II treated ApoE-KO mice, FIG. 1, fasudil 0.5 mg/ml and 1 mg/ml in drinking water), the “decrease in the size of aneurysms” value is 29%. Further, in assay [2] (Ang II for 30 days, fasudil in drinking water), the “Heart/body Wt” value turned out to be 6.1 ± 0.1. For the same compound, the “Myocyte (mm^2)” value in assay [2] (cardiomyocyte size, Ang II for 30 days, fasudil in drinking water) is given as 262 ± 16# mm^2. For the same compound, the “gene expression of ANP and collagen III” value in assay [2] (heart of apoE-KO mice) is “normalized”. Further, in assay [2] (measured by heart weight or cardiomyocyte size), the “angiotensin-II induced cardiac hypertrophy” value is given as “significantly reduced”. Further, in assay [2] (mouse, in vivo), the cardiac function result was “improved” and the perivascular fibrosis entry was “reduced”. For the same compound, in assay [2] (versus Ang II treated ApoE-KO mice, FIG. 4, fasudil 0.5 mg/ml and 1 mg/ml), the “decrease in the degree of cardiac hypertrophy” value is on record as 14%. Further, in assay [3] (H & E staining, high dose fasudil, animals with aneurysm), the “aortic wall changes (adventitial fibrosis, inflammation, destruction of smooth muscle cells and elastin)” value was “ameliorated, but not fully eliminated”. Besides, in assay [3], the apoptosis entry was “reducing apoptosis”. The apoptosis entry in assay [3] (listed as fasudil) is given as “decreased apoptosis”. The “cytosolic DNA fragmentation increased by Ang II” value in assay [3] (cell death detection ELISA, aortic tissue, P<0.01, FIG. 3) was “abolished”. Also, in assay [4] (aortic arch atherosclerotic lesion area, Ang II for 30 days, fasudil in drinking water), the “Lesion (%)” value worked out at 25 ± 3%. In assay [4] (mouse, in vivo), the “effect on aortic arch atherosclerotic lesion area” value is reported as “no effect”, the “effect on aortic stiffness” value is reported as “no effect” and the “effect on serum cholesterol” value is recorded as “no effect”. In assay [4] (tail cuff instrumentation), the “effect on heart rate” value was “no effect” and the “effect on systolic blood pressure (SBP)” value is on record as “no effect”.

For the compound `O=S(=O)(c1cccc2c(O)nccc12)N1CCCNCC1` [hydroxyfasudil], the “specificity of the inhibitory effect on Rho-kinase” value with Rho-kinase is “more specific inhibitory effect on Rho-kinase”.

Values taken from patent US20050014783A1, “Use of Rho-kinase inhibitors in the treatment of aneurysm and cardiac hypertrophy” (Schering Aktiengesellschaft, priority 2003, published 2005).
